Measured values published in patent US11970474B2, “Substituted benzodiazoles and use thereof in therapy” (THOMAS HELLEDAYS STIFTELSE FÖR MEDICINSK FORSKNING, priority 2018, dated 2024).

How the values were obtained:
[1] = test system: MLE-12 cells; assay: Pro-inflammatory gene regulation induced by TNFα; format: cell-based, mouse; settings: 20 ng/ml TNFα, 5 μM compound
Procedure: MLE-12 cells are maintained in suitable medium and treated with vehicle or 5 μM experimental compound for 48 h before stimulation with 20 ng/ml TNFα for 30 minutes. RNA is extracted and reverse-transcribed, followed by quantitative PCR evaluation of a panel of pro-inflammatory regulators (SABiosciences) essentially as described in Ba, Xueqing, et al., The Journal of Immunology, 192(5), 2384-94 (2014).

[2] = test system: H460; assay: Colony formation survival assay; format: cell-based; settings: cancer cell line H460; 7-11 days
Procedure: (§1) Example compounds or vehicle are transferred to 6-well plates. Cell lines to be tested are seeded at a density of 200-500 cells/well in suitable media and allowed to grow for 7-11 days in at 5% CO2, 37° C. The medium is removed and replaced with 4% w/v methylene blue in methanol. Following extensive washes in tap water and air drying, […] with more than 50 […] are counted, as described in Franken, Nicolaas A. P., et al., Nature Protocols, 1(5), 2315-19 (2006).

[3] = test system: ACHN; assay: Colony formation survival assay; format: cell-based; settings: cancer cell line ACHN; 7-11 days
Procedure: as §1

[4] = test system: NB-4; assay: Cell viability assay (resazurin); format: cell-based; settings: Homo sapiens, 120 h, Cancer, acute promyelocytic leukemia, five day incubation
How it was run: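 Viability is measured by resazurin reduction: compound in 11 concentrations (duplicate, DMSO <1% final) is dispensed before cells, and after three or five days' culture the dye is added at 10 μg/ml for 2-4 hours prior to fluorescence reading.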

[5] = test system: BALB/c mice; assay: Recruitment of neutrophils to mouse airways; format: in vivo; settings: 25 mg/kg intraperitoneally; intranasal TNFα or lipopolysaccharide; lungs lavaged after 16 h
Procedure: Six- to 8-wk-old BALB/c mice (˜20 g; Harlan Sprague Dawley, San Diego, CA) were injected 25 mg/kg intraperitoneally 3 h before and at the time of intranasal TNF-α challenge essentially as described in Ba, Xueqing, et al., The Journal of Immunology, 192(5), 2384-94 (2014). To evaluate inflammation, bronchoalveolar lavage fluids (BALF) were collected 16 h after challenge, processed, cytospin slides were stained with Wright-Giemsa, and the number of neutrophils was counted. All experiments were performed according to the National Institutes of Health Guidelines for the Care and Use of Laboratory Animals.

| SMILES | pro-inflammatory gene regulation induced by the cytokine TNFα [1] | colony formation [2] | colony formation [3] | EC50 [4] | recruitment of neutrophils to mouse airways [5] |
| --- | --- | --- | --- | --- | --- |
| O=C(Nc1ccc(I)cc1)N1CCC(n2c(=O)[nH]c3c(Br)cccc32)CC1 [Example 13, 4-(4-Bromo-2-oxo-2,3-dihydro-1H-1,3-benzodiazol-1-yl)-N-(4-iodophenyl)piperidine-1-carboxamide] | reduces pro-inflammatory gene regulation | inhibits colony formation | inhibits colony formation | 5 µM | reduces recruitment of neutrophils |
| O=C(Nc1ccc(Cl)c(Cl)c1)N1CCC(n2c(=O)[nH]c3c(-c4ccc(CO)nc4)cccc32)CC1 [Example 28, N-(3,4-dichlorophenyl)-4-{4-[6-(hydroxymethyl)pyridin-3-yl]-2-oxo-2,3-dihydro-1H-1,3-benzodiazol-1-yl}piperidine-1-carboxamide] |  |  |  | 11 µM |  |
